Patent publication US20130123319A1, “Medthod of Treating a systemic inflammatory disorder and damaged internal tissues” (priority 2011, published 2013)
Where two headings read alike, the source gives them in different places.

Experiments:
[1] = test system: Myasthenia Gravis without Thymoma; experiment: Case report: patient with Myasthenia Gravis given intravenous nutritional infusion; format: in vivo, human; conditions: day 5 of the hospitalization
Procedure: In 1990 I began to treat a patient with Myasthenia Gravis without Thymoma, an autoimmune disorder, which causes a decrease in the availability of Acetylcholine at the muscle endplate. Pyridostigmine, which increases the amount of Acetylcholine available at the endplate, and later Prednisone, was added for control of their myasthenia. The later acts by reducing the inflammatory response at the muscle endplate. In 1992 they underwent a bowel operation for correction of an enterorectal fistula and was unable to eat orally or gastrically to be fed. They were put on the standardized intravenous nutritional protocol in the hospital in which I worked, which included 3% Glycerin plus 3% Amino Acids, (see Table 1) at a rate of 100 ccs/hour. This was given for 6 days. There was no change in their Myasthenia Gravis. Twelve days later they were readmitted with abdominal pain and the same IV nutrition was administered. On day 5 of the hospitalization they developed a cholinergic crisis, which was relieved by Atropine. Pyridostigmine and Prednisone were discontinued. […] They were readmitted to the hospital 4 years later because of difficulty swallowing and again was given intravenous 3% Glycerin and 3% Amino Acids. […]

[2] = test system: bacteria; conditions: virus specimens; more potent when mixed with serum; cited from earlier work
[3] = test system: Behcet's Disease; experiment: Case reports: patients with exacerbation of Behcet's Disease; format: in vivo, human
Text: Behcet's Syndrome is a worldwide disorder that seems to be more severe and more common along the Silk Route and in Japan.
This happened back in the year 2000.

[4] = in vivo, cited from earlier work

CN1[C@@H]2CC[C@H]1C[C@@H](OC(=O)C(CO)c1ccccc1)C2 (some centres unmarked) [Atropine]
cholinergic crisis [1]: relieved

OCC(O)CO [Glycerin]
bacteria in the specimens [2]: reduced bacteria
rate of improvement in autoimmune diseases, especially Behcet's Disease ([3]; inventor's review of the cases): quick or rapid improvement
central nervous system involvement ([3]; one patient with neuro-Behcet's disease): improved central nervous system involvement rapidly
toxicity [4]: low toxicity
toxicity ([4]; listed as Sterilized Glycerin): non-toxic

C[C@]12C=CC(=O)C=C1CC[C@@H]1[C@@H]2C(=O)C[C@@]2(C)[C@H]1CC[C@]2(O)C(=O)CO [Prednisone, reference compound]
response of Behcet's exacerbation ([3]; eleven patients, high dose): failed to respond
response of Behcet's exacerbations ([3]; over 20 patients since 2000, high doses): usually responded
